SMILES strings stand for the structures. pKi: −log10 of the molar value. A value given as a limit tells only on which side of the number the result lay.

In assay [1] the target is T1, Interstitial collagenase (Homo sapiens, UniProt P03956).
T1 sequence (P03956 whole entry): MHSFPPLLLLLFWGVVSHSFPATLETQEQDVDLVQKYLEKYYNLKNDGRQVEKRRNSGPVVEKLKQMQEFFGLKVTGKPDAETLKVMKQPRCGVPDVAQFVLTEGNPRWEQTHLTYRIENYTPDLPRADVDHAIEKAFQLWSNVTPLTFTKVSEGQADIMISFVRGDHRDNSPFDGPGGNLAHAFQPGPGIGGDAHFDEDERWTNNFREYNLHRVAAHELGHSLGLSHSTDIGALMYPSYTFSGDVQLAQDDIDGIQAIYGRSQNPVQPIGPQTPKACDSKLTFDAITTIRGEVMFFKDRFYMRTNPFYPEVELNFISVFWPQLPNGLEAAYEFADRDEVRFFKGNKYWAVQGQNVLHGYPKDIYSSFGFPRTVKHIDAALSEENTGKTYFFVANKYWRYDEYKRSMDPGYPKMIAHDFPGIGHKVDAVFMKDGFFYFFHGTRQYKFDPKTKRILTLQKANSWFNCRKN
The assay is described as follows: Inhibitory activity against matrix metalloprotease-1.

In assay [2] the target is T2, 72 kDa type IV collagenase (Homo sapiens, UniProt P08253). The assay is described as follows: Inhibitory activity against matrix metalloprotease-2; NA denotes no activity upto solubility limit.
T2 sequence (P08253 whole entry): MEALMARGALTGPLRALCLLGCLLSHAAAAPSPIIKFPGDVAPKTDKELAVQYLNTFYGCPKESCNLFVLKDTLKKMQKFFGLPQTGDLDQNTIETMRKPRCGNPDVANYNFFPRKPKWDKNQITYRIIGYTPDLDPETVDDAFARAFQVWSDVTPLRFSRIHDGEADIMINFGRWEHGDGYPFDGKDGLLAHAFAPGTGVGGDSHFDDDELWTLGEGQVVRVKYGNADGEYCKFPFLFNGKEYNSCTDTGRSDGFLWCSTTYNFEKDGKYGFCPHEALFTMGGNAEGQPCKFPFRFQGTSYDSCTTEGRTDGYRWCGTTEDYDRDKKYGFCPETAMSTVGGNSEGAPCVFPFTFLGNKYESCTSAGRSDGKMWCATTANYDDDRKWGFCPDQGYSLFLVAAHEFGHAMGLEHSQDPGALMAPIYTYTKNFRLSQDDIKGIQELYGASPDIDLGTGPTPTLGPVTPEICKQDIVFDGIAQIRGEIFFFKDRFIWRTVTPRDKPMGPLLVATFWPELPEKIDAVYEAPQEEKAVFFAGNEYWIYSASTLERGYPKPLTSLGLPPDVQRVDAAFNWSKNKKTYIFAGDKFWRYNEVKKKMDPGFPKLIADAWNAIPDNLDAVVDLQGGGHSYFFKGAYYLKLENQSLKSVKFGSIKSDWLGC
Assay [3] addresses T3, Macrophage metalloelastase (Homo sapiens, UniProt P39900). The assay is described as follows: Inhibitory activity against matrix metalloprotease-12; NA denotes no activity upto solubility limit.
In assay [4] the target is T4, Matrix metalloproteinase-9 (Homo sapiens, UniProt P14780). The assay is described as follows: Inhibitory activity against matrix metalloprotease-9; NA denotes no activity upto solubility limit.
T4 sequence (P14780 whole entry): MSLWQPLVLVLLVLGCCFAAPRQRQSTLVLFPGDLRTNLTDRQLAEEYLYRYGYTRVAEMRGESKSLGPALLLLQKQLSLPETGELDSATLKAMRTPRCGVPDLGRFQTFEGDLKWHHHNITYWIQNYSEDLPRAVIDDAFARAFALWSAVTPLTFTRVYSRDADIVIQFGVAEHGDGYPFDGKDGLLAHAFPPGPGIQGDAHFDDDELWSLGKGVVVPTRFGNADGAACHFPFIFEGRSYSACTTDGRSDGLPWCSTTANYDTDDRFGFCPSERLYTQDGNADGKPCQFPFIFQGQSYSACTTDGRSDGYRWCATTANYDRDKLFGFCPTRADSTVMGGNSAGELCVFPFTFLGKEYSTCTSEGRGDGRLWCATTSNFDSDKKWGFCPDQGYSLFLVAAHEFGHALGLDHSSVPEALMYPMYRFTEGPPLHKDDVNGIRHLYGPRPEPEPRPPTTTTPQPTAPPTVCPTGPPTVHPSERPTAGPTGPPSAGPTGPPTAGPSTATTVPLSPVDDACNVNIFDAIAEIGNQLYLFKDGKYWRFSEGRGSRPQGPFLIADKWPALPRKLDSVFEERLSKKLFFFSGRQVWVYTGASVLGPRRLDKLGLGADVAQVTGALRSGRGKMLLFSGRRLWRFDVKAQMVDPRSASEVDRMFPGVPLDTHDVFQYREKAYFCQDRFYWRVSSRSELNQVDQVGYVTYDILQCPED
Assay [5] has as its target T1, Interstitial collagenase. The assay is described as follows: Inhibitory activity against matrix metalloprotease-1; NA denotes no activity upto solubility limit.
Assay [6] deals with T3, Macrophage metalloelastase. Put plainly: Inhibitory activity against matrix metalloprotease-12.
Assay [7] has as its target T1, Interstitial collagenase. Put plainly: Inhibitory activity against matrix metalloprotease-1; F denotes no activity was observed upto the concentration that fluorescence could be compensated for.
The target in assay [8] is T4, Matrix metalloproteinase-9. Put plainly: Inhibitory activity against matrix metalloprotease-9; F denotes no activity was observed upto the concentration that fluorescence could be compensated for.
The target of assay [9] is T4, Matrix metalloproteinase-9. Put plainly: Inhibitory activity against matrix metalloprotease-9.
The target in assay [10] is T2, 72 kDa type IV collagenase. Put plainly: Inhibitory activity against matrix metalloprotease-2.

T3 sequence (P39900 whole entry): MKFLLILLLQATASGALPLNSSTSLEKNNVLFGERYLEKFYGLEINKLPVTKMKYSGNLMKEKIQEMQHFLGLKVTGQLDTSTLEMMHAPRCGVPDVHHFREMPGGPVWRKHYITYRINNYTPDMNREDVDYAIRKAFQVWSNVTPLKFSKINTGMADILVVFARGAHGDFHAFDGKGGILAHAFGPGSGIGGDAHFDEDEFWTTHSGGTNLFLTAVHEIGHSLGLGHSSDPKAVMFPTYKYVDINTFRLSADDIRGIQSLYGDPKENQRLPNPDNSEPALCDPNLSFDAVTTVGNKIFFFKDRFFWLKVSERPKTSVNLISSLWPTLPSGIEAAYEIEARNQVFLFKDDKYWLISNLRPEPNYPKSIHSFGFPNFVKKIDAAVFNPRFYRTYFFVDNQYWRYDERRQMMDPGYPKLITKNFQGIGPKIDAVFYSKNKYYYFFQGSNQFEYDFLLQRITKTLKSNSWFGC

One may read the pKi as the negative decadic logarithm of the Ki, by convention in mol/L. A higher pKi goes with a low Ki. With `C=C[C@@H]1OC(c2ccc(Cl)cc2)=N[C@H]1SC(C)=O`, the negative-log Ki (pKi) on Interstitial collagenase [1] is less than 4.00. Further, the Ki entry in [2] is “No Activity”.
On to `C=C[C@@H]1OC(c2ccc(F)cc2)=N[C@H]1CO`, for which the Ki result (in assay [3]; in assay [4]; at Interstitial collagenase [5]; in assay [2]) was “No Activity” throughout.
In assay [6], `C=C[C@@H]1OC(c2ccc([N+](=O)[O-])cc2)=N[C@H]1CO` had a negative-log Ki (pKi) of less than 4.00. In addition, the Ki result (at Interstitial collagenase [7]; in [8]) was “Fluorescence interfered with assay” throughout.
As to `C=C[C@@H]1OC(Cc2ccccc2)=N[C@H]1CO`, the Ki result in assay [3] and in [2] was “No Activity” in each case. Also, the pKi in assay [9] was 5.22; at Interstitial collagenase [1], less than 3.30.
Consider `C=C[C@@H]1OC(/C=C/c2ccccc2)=N[C@H]1SC(C)=O`, for which the negative logarithm of the Ki (pKi) was less than 3.52 in [6] and less than 4.00 in [9]. In addition, the Ki entry on Interstitial collagenase [5] is on record as “No Activity”.
Take `C=C[C@@H]1OC(c2ccc(C)cc2)=N[C@H]1S`: the pKi in assay [6] was less than 3.52; in [9], less than 4.00; on Interstitial collagenase [1], less than 4.00; in assay [10] it was 4.06.
For `C=C[C@@H]1OC(c2ccccc2)=N[C@H]1CO`, the pKi in assay [6] was less than 2.70; in assay [9], less than 2.40; in assay [10], less than 2.70. Besides, on Interstitial collagenase [5], the Ki entry was “No Activity”.
`C=C[C@@H]1OC(c2ccc(-c3ccccc3)cc2)=N[C@H]1CO` showed a negative-log Ki (pKi) in assay [9] of 4.62. Besides, at Interstitial collagenase [5], the Ki result is on record as “No Activity”.
For the compound `C=C[C@@H]1OC(/C=C/c2ccccc2)=N[C@H]1S`, the Ki entry in assay [3] and in assay [2] was “No Activity” throughout. The values for the pKi (in assay [9]; at Interstitial collagenase [1]) were 4.03 and 4.04, respectively.
For `C=C[C@@H]1OC(/C=C\C=C\c2ccccc2)=N[C@H]1CO`, the pKi in assay [6] is 4.31; in assay [9], 5.10; at Interstitial collagenase [1], 4.49; in [10], 3.82.
Turning to `C=C[C@@H]1OC(CCCCCCC)=N[C@H]1CO`, the negative logarithm of the Ki (pKi) in [9] is less than 2.70.
Regarding `C=C[C@@H]1OC(c2ccc(Oc3ccccc3)cc2)=N[C@H]1CO`, in assay [9], the negative-log Ki (pKi) is 4.49.
Take `C=C[C@@H]1OC(c2ccc(C)cc2)=N[C@H]1Sc1ccccc1`: the Ki result in [3] and in assay [2] was “No Activity” throughout. On Interstitial collagenase [1], the pKi was 4.19.
With `C=C[C@@H]1OC(/C=C/c2ccc(Br)cc2)=N[C@H]1CO`, the Ki result in assay [3] and in assay [2] was “No Activity” in each case. The pKi is 4.66 in assay [9] and less than 3.52 at Interstitial collagenase [1].
Take `C=C[C@@H]1OC(C2CCCCC2)=N[C@H]1CO`: the Ki result (in assay [3]; in assay [4]; on Interstitial collagenase [5]; in assay [2]) was “No Activity” throughout.
In assay [9], `C=C[C@@H]1OC(c2ccc(Br)cc2)=N[C@H]1Sc1ccccc1` gave a negative-log Ki (pKi) of 4.03.
As to `C=C[C@@H]1OC(c2ccc(Br)cc2)=N[C@H]1CO`, the pKi in assay [6] is less than 3.52; in [9] it was 5.05; in assay [10] it was less than 3.22. Besides, the Ki result at Interstitial collagenase [5] was “No Activity”.
In the case of `C=CC1=N[C@@H](CO)[C@H](C=C)O1`, the Ki result (in assay [3]; in [4]; at Interstitial collagenase [5]; in [2]) was “No Activity” in each case.
For the compound `C=C[C@@H]1OC(/C=C/c2ccccc2)=N[C@H]1CO`, the pKi in assay [9] is 4.40.
Take `C=C[C@@H]1OC(c2ccc(Br)cc2)=N[C@H]1S`: the pKi in [9] is less than 4.00; at Interstitial collagenase [1], less than 3.70.
`C=C[C@@H]1OC(CCc2ccccc2)=N[C@H]1CO`: the Ki result (in assay [4]; at Interstitial collagenase [5]; in assay [2]) was “No Activity” each time.
As to `C=C[C@@H]1OC(c2ccc(C)cc2)=N[C@H]1CO`, the Ki result (in assay [3]; at Interstitial collagenase [5]; in [2]) was “No Activity” throughout. In assay [9], this compound had a negative-log Ki (pKi) of 4.17.
In the case of `C=C[C@@H]1OC(c2ccc(Cl)cc2)=N[C@H]1S`, the Ki entry in [3] and in assay [2] was “No Activity” throughout. In addition, the pKi (in assay [9]; on Interstitial collagenase [1]) was less than 4.00 in each case.
Take `C=C[C@@H]1OC(c2ccc(-c3ccccc3)cc2)=N[C@H]1SC(C)=O`: the Ki entry in assay [3] and in assay [2] was “No Activity” throughout. Further, the values for the pKi (in assay [9]; on Interstitial collagenase [1]) were 4.09 and less than 3.40, respectively.
Regarding `C=C[C@@H]1OC(c2ccc(Br)cc2)=N[C@H]1SC(C)=O`, the Ki result in assay [3] and in assay [2] was “No Activity” in each case. For the same compound, the results for the pKi (in [9]; at Interstitial collagenase [1]) were 4.06 and less than 3.70, respectively.
In the case of `C=C[C@@H]1OC(c2ccc(Cl)cc2)=N[C@H]1CO`, in assay [3], the Ki result is on record as “No Activity”. In addition, the figures for the pKi (in [9]; on Interstitial collagenase [1]) were 4.48 and less than 3.52, respectively.
With `C=C[C@@H]1OC(c2ccc(-c3ccccc3)cc2)=N[C@H]1Sc1ccccc1`, the negative-log Ki (pKi) in [9] is less than 4.00. Also, the Ki entry (at Interstitial collagenase [5]; in assay [2]) was “No Activity” throughout.
With `C=C[C@@H]1OC(c2ccc(OC)cc2)=N[C@H]1CO`, the Ki result (in assay [3]; in assay [4]; on Interstitial collagenase [5]; in [2]) was “No Activity” each time.
Take `C=C[C@@H]1OC(/C=C/c2ccccc2)=N[C@H]1Sc1ccccc1`: the Ki result in [3] and in [2] was “No Activity” throughout. Moreover, the negative logarithm of the Ki (pKi) (in assay [9]; on Interstitial collagenase [1]) was less than 4.00 in each case.
On to `C=C[C@@H]1OC(CCCCC)=N[C@H]1CO`, for which the negative-log Ki (pKi) in [9] is less than 2.70.
For the compound `C=C[C@@H]1OC(c2ccc(Cl)cc2)=N[C@H]1Sc1ccccc1`, the Ki result (in assay [3]; on Interstitial collagenase [5]) was “No Activity” each time. For the same compound, the negative-log Ki (pKi) in assay [9] was less than 3.70.
Consider `C=C[C@@H]1OC(C#Cc2ccccc2)=N[C@H]1CO`, for which the Ki entry in [3] and in assay [2] was “No Activity” throughout. For the same compound, the values for the pKi (in assay [9]; at Interstitial collagenase [1]) were 4.19 and 4.34, respectively.
In the case of `C=C[C@@H]1OC(/C=C/c2ccc(-c3ccccc3)cc2)=N[C@H]1CO`, the Ki result in assay [3], in assay [4] and in assay [2] was “No Activity” throughout.
For `C=C[C@@H]1OC(c2ccc(C)cc2)=N[C@H]1SC(C)=O`, the Ki entry (in assay [3]; at Interstitial collagenase [5]; in [2]) was “No Activity” in each case. The compound further had a pKi in assay [9] of less than 4.00.

Values taken from ChEMBL document CHEMBL1137878, “Synthesis and evaluation of novel oxazoline MMP inhibitors” (Bioorg Med Chem Lett, 2004).
